# System: Klebsiella pneumoniae
# Test: Antimicrobial activity against Klebsiella pneumoniae containing PFGE clone B expressing beta-lactamase Oxa-48, TEM-1, CTX-M-15 and Oxa-1 by Etest
# Assay type: functional
row,Compound,MIC [µg/mL]
1,CC1(C)S[C@@H]2[C@H](NC(=O)[C@H](C(=O)O)c3ccsc3)C(=O)N2[C@H]1C(=O)O [TICARCILLIN],> 512
2,NC[C@H]1O[C@H](O[C@H]2[C@H](O)[C@@H](O[C@H]3O[C@H](CO)[C@@H](O)[C@H](N)[C@H]3O)[C@H](N)C[C@@H]2N)[C@H](N)C[C@@H]1O [TOBRAMYCIN],> 64
3,COc1cc(Cc2cnc(N)nc2N)cc(OC)c1OC [TRIMETHOPRIM],> 32
4,GENTAMICIN,1

# System: Klebsiella pneumoniae
# Test: Antimicrobial activity against Klebsiella pneumoniae isolate 21 expressing beta-lactamase Oxa-48, TEM-1 and Oxa-9 by Etest in presence of beta-lactamase inhibitor clavulanic acid
# Assay type: functional
row,Compound,MIC [µg/mL]
1,CC1(C)S[C@@H]2[C@H](NC(=O)[C@H](C(=O)O)c3ccsc3)C(=O)N2[C@H]1C(=O)O [TICARCILLIN],> 512

# System: Escherichia coli
# Test: Antimicrobial activity against Escherichia coli J53 harboring beta-lactamase TEM-1, SHV-12 and Oxa-9 by Etest
# Assay type: functional
row,Compound,MIC [µg/mL]
1,CO/N=C(\C(=O)N[C@@H]1C(=O)N2C(C(=O)[O-])=C(C[N+]3(C)CCCC3)CS[C@H]12)c1csc(N)n1,0.5
2,C[C@H]1[C@H](NC(=O)/C(=N\OC(C)(C)C(=O)O)c2csc(N)n2)C(=O)N1S(=O)(=O)O [AZTREONAM],64
3,CC1(C)S[C@@H]2[C@H](NC(=O)[C@H](C(=O)O)c3ccsc3)C(=O)N2[C@H]1C(=O)O [TICARCILLIN],> 512

# System: Escherichia coli
# Test: Antimicrobial activity against Escherichia coli J53 harboring beta-lactamase Oxa-48 by Etest
# Assay type: functional
row,Compound,MIC [µg/mL]
1,CO/N=C(\C(=O)N[C@@H]1C(=O)N2C(C(=O)[O-])=C(C[N+]3(C)CCCC3)CS[C@H]12)c1csc(N)n1,< 0.5
2,C[C@H]1[C@H](NC(=O)/C(=N\OC(C)(C)C(=O)O)c2csc(N)n2)C(=O)N1S(=O)(=O)O [AZTREONAM],< 0.125
3,CC1(C)S[C@@H]2[C@H](NC(=O)[C@H](C(=O)O)c3ccsc3)C(=O)N2[C@H]1C(=O)O [TICARCILLIN],> 512

# System: Escherichia coli
# Test: Antimicrobial activity against Escherichia coli J53 by Etest
# Assay type: functional
row,Compound,MIC [µg/mL]
1,CO/N=C(\C(=O)N[C@@H]1C(=O)N2C(C(=O)[O-])=C(C[N+]3(C)CCCC3)CS[C@H]12)c1csc(N)n1,0.125
2,C[C@H]1[C@H](NC(=O)/C(=N\OC(C)(C)C(=O)O)c2csc(N)n2)C(=O)N1S(=O)(=O)O [AZTREONAM],0.5
3,CC1(C)S[C@@H]2[C@H](NC(=O)[C@H](C(=O)O)c3ccsc3)C(=O)N2[C@H]1C(=O)O [TICARCILLIN],4

# System: Klebsiella pneumoniae
# Test: Antimicrobial activity against Klebsiella pneumoniae isolate 11 expressing beta-lactamase Oxa-48, TEM-1 and Oxa-1 by Etest in presence of beta-lactamase inhibitor clavulanic acid
# Assay type: functional
row,Compound,MIC [µg/mL]
1,CC1(C)S[C@@H]2[C@H](NC(=O)[C@H](C(=O)O)c3ccsc3)C(=O)N2[C@H]1C(=O)O [TICARCILLIN],> 512

# System: Escherichia coli
# Test: Antimicrobial activity against Escherichia coli J53 harboring beta-lactamase Oxa-48 by Etest in presence of beta-lactamase inhibitor clavulanic acid
# Assay type: functional
row,Compound,MIC [µg/mL]
1,CC1(C)S[C@@H]2[C@H](NC(=O)[C@H](C(=O)O)c3ccsc3)C(=O)N2[C@H]1C(=O)O [TICARCILLIN],> 512

# System: Escherichia coli
# Test: Antimicrobial activity against Escherichia coli J53 harboring beta-lactamase TEM-1, CTX-M-15 and Oxa-1 by Etest
# Assay type: functional
row,Compound,MIC [µg/mL]
1,CO/N=C(\C(=O)N[C@@H]1C(=O)N2C(C(=O)[O-])=C(C[N+]3(C)CCCC3)CS[C@H]12)c1csc(N)n1,4
2,C[C@H]1[C@H](NC(=O)/C(=N\OC(C)(C)C(=O)O)c2csc(N)n2)C(=O)N1S(=O)(=O)O [AZTREONAM],8
3,CC1(C)S[C@@H]2[C@H](NC(=O)[C@H](C(=O)O)c3ccsc3)C(=O)N2[C@H]1C(=O)O [TICARCILLIN],> 514

# System: Klebsiella pneumoniae
# Test: Antimicrobial activity against Klebsiella pneumoniae isolate 21 expressing beta-lactamase Oxa-48, TEM-1 and Oxa-9 by Etest
# Assay type: functional
row,Compound,MIC [µg/mL]
1,CO/N=C(\C(=O)N[C@@H]1C(=O)N2C(C(=O)[O-])=C(C[N+]3(C)CCCC3)CS[C@H]12)c1csc(N)n1,4
2,C[C@H]1[C@H](NC(=O)/C(=N\OC(C)(C)C(=O)O)c2csc(N)n2)C(=O)N1S(=O)(=O)O [AZTREONAM],0.5
3,CC1(C)S[C@@H]2[C@H](NC(=O)[C@H](C(=O)O)c3ccsc3)C(=O)N2[C@H]1C(=O)O [TICARCILLIN],> 512

# System: Escherichia coli
# Test: Antimicrobial activity against Escherichia coli J53 by Etest in presence of beta-lactamase inhibitor clavulanic acid
# Assay type: functional
row,Compound,MIC [µg/mL]
1,CC1(C)S[C@@H]2[C@H](NC(=O)[C@H](C(=O)O)c3ccsc3)C(=O)N2[C@H]1C(=O)O [TICARCILLIN],4

# System: Escherichia coli
# Test: Antimicrobial activity against Escherichia coli J53 harboring beta-lactamase TEM-1, SHV-12 and Oxa-9 by Etest in presence of beta-lactamase inhibitor clavulanic acid
# Assay type: functional
row,Compound,MIC [µg/mL]
1,CC1(C)S[C@@H]2[C@H](NC(=O)[C@H](C(=O)O)c3ccsc3)C(=O)N2[C@H]1C(=O)O [TICARCILLIN],> 512

# System: Escherichia coli
# Test: Antimicrobial activity against Escherichia coli J53 harboring beta-lactamase TEM-1, CTX-M-15 and Oxa-1 by Etest in presence of beta-lactamase inhibitor clavulanic acid
# Assay type: functional
row,Compound,MIC [µg/mL]
1,CC1(C)S[C@@H]2[C@H](NC(=O)[C@H](C(=O)O)c3ccsc3)C(=O)N2[C@H]1C(=O)O [TICARCILLIN],> 512

# System: Klebsiella pneumoniae
# Test: Antimicrobial activity against Klebsiella pneumoniae isolate 11 expressing beta-lactamase Oxa-48, TEM-1 and Oxa-1 by Etest
# Assay type: functional
row,Compound,MIC [µg/mL]
1,CO/N=C(\C(=O)N[C@@H]1C(=O)N2C(C(=O)[O-])=C(C[N+]3(C)CCCC3)CS[C@H]12)c1csc(N)n1,4
2,C[C@H]1[C@H](NC(=O)/C(=N\OC(C)(C)C(=O)O)c2csc(N)n2)C(=O)N1S(=O)(=O)O [AZTREONAM],0.5
3,CC1(C)S[C@@H]2[C@H](NC(=O)[C@H](C(=O)O)c3ccsc3)C(=O)N2[C@H]1C(=O)O [TICARCILLIN],> 512

# System: Klebsiella pneumoniae
# Test: Antimicrobial activity against Klebsiella pneumoniae containing PFGE clone A expressing beta-lactamase Oxa-48, TEM-1, SHV-12 and Oxa-9 by Etest in presence of beta-lactamase inhibitor clavulanic acid
# Assay type: functional
row,Compound,MIC [µg/mL]
1,CC1(C)S[C@@H]2[C@H](NC(=O)[C@H](C(=O)O)c3ccsc3)C(=O)N2[C@H]1C(=O)O [TICARCILLIN],> 512

# System: Klebsiella pneumoniae
# Test: Antimicrobial activity against Klebsiella pneumoniae containing PFGE clone B expressing beta-lactamase Oxa-48, TEM-1, CTX-M-15 and Oxa-1 by Etest in presence of beta-lactamase inhibitor clavulanic acid
# Assay type: functional
row,Compound,MIC [µg/mL]
1,CC1(C)S[C@@H]2[C@H](NC(=O)[C@H](C(=O)O)c3ccsc3)C(=O)N2[C@H]1C(=O)O [TICARCILLIN],> 512

# System: Klebsiella pneumoniae
# Test: Antimicrobial activity against Klebsiella pneumoniae containing PFGE clone A expressing beta-lactamase Oxa-48, TEM-1, SHV-12 and Oxa-9 by Etest
# Assay type: functional
row,Compound,MIC [µg/mL]
1,CC1(C)S[C@@H]2[C@H](NC(=O)[C@H](C(=O)O)c3ccsc3)C(=O)N2[C@H]1C(=O)O [TICARCILLIN],> 512
2,NC[C@H]1O[C@H](O[C@H]2[C@H](O)[C@@H](O[C@H]3O[C@H](CO)[C@@H](O)[C@H](N)[C@H]3O)[C@H](N)C[C@@H]2N)[C@H](N)C[C@@H]1O [TOBRAMYCIN],> 64
3,COc1cc(Cc2cnc(N)nc2N)cc(OC)c1OC [TRIMETHOPRIM],> 32
4,GENTAMICIN,> 64

# From ChEMBL document CHEMBL1275467, “Spread of OXA-48-positive carbapenem-resistant Klebsiella pneumoniae isolates in Istanbul, Turkey” (2008)
